Measured values reported in ChEMBL document CHEMBL1129220, “Synthesis and structure-activity relationships of novel 3-Hty-substituted pneumocandins” (Bioorg Med Chem Lett, 1997).
Converted amounts (≈) assume the structure as drawn.

tested on: Candida albicans; test: In vitro minimum fungicidal concentration against Candida albicans (MY 1055) using a whole cell broth microdilution assay.; format: functional

| Compound | MFC |
| --- | --- |
| CCC(C)CC(C)CCCCCCCCC(=O)N[C@@H]1C[C@@H](O)[C@@H](O)NC(=O)[C@@H]2[C@@H](O)CCN2C(=O)[C@H]([C@@H](O)CC(N)=O)NC(=O)[C@H]([C@@H](O)[C@H](O)c2cc(I)c(O)c(I)c2)NC(=O)[C@@H]2C[C@@H](O)CN2C(=O)[C@H]([C@@H](C)O)NC1=O (some centres undefined) | 8 µg/mL (≈ 6.07 µM) |
| CCC(C)CC(C)CCCCCCCCC(=O)N[C@@H]1C[C@@H](O)CNC(=O)[C@@H]2[C@@H](O)CCN2C(=O)[C@H]([C@@H](O)CC(N)=O)NC(=O)[C@H]([C@@H](O)Cc2ccc(O)cc2)NC(=O)[C@@H]2C[C@@H](O)CN2C(=O)[C@H]([C@@H](C)O)NC1=O (some centres undefined) | 0.25 µg/mL (≈ 0.242 µM) |
| CCC(C)CC(C)CCCCCCCCC(=O)N[C@@H]1C[C@@H](O)CNC(=O)[C@@H]2[C@@H](O)CCN2C(=O)[C@H]([C@@H](O)CC(N)=O)NC(=O)[C@H]([C@@H](O)Cc2ccc(O)c(N)c2)NC(=O)[C@@H]2C[C@@H](O)CN2C(=O)[C@H]([C@@H](C)O)NC1=O (some centres undefined) | 2 µg/mL (≈ 1.91 µM) |
| CCC(C)CC(C)CCCCCCCCC(=O)N[C@@H]1C[C@@H](O)CNC(=O)[C@@H]2[C@@H](O)CCN2C(=O)[C@H]([C@@H](O)CC(N)=O)NC(=O)[C@H]([C@@H](O)Cc2ccc(O)c(C(=O)OC)c2)NC(=O)[C@@H]2C[C@@H](O)CN2C(=O)[C@H]([C@@H](C)O)NC1=O (some centres undefined) | 2 µg/mL (≈ 1.83 µM) |
| CCC(C)CC(C)CCCCCCCCC(=O)N[C@@H]1C[C@@H](O)CNC(=O)[C@@H]2[C@@H](O)CCN2C(=O)[C@H]([C@@H](O)CC(N)=O)NC(=O)[C@H]([C@@H](O)Cc2ccc(O)c(I)c2)NC(=O)[C@@H]2C[C@@H](O)CN2C(=O)[C@H]([C@@H](C)O)NC1=O (some centres undefined) | 0.5 µg/mL (≈ 0.431 µM) |
| CCC(C)CC(C)CCCCCCCCC(=O)N[C@@H]1C[C@@H](O)[C@@H](O)NC(=O)[C@@H]2[C@@H](O)CCN2C(=O)[C@H]([C@@H](O)CC(N)=O)NC(=O)[C@H]([C@@H](O)[C@H](O)c2ccc(O)c(I)c2)NC(=O)[C@@H]2C[C@@H](O)CN2C(=O)[C@H]([C@@H](C)O)NC1=O (some centres undefined) | 4 µg/mL (≈ 3.36 µM) |
| CCC(C)CC(C)CCCCCCCCC(=O)N[C@@H]1C[C@@H](O)[C@@H](O)NC(=O)[C@@H]2[C@@H](O)CCN2C(=O)[C@H]([C@@H](O)CC(N)=O)NC(=O)[C@H]([C@@H](O)[C@H](O)c2ccc(O)c(NC(=O)CS)c2)NC(=O)[C@@H]2C[C@@H](O)CN2C(=O)[C@H]([C@@H](C)O)NC1=O (some centres undefined) | 2 µg/mL (≈ 1.73 µM) |
| CCC(C)CC(C)CCCCCCCCC(=O)N[C@@H]1C[C@@H](O)[C@@H](O)NC(=O)[C@@H]2[C@@H](O)CCN2C(=O)[C@H]([C@@H](O)CC(N)=O)NC(=O)[C@H]([C@@H](O)[C@H](O)c2ccc(O)c(NC(=O)CCN)c2)NC(=O)[C@@H]2C[C@@H](O)CN2C(=O)[C@H]([C@@H](C)O)NC1=O (some centres undefined) | 0.25 µg/mL (≈ 0.217 µM) |
| CCC(C)CC(C)CCCCCCCCC(=O)N[C@@H]1C[C@@H](O)[C@@H](O)NC(=O)[C@@H]2[C@@H](O)CCN2C(=O)[C@H]([C@@H](O)CC(N)=O)NC(=O)[C@H]([C@@H](O)[C@H](O)c2ccc(O)cc2)NC(=O)[C@@H]2C[C@@H](O)CN2C(=O)[C@H]([C@@H](C)O)NC1=O (some centres undefined) | 0.25 µg/mL (≈ 0.235 µM) |
| CCC(C)CC(C)CCCCCCCCC(=O)N[C@@H]1C[C@@H](O)[C@@H](O)NC(=O)[C@@H]2[C@@H](O)CCN2C(=O)[C@H]([C@@H](O)CC(N)=O)NC(=O)[C@H]([C@@H](O)[C@H](O)c2ccc(O)c([N+](=O)[O-])c2)NC(=O)[C@@H]2C[C@@H](O)CN2C(=O)[C@H]([C@@H](C)O)NC1=O (some centres undefined) | 8 µg/mL (≈ 7.21 µM) |
| CCC(C)CC(C)CCCCCCCCC(=O)N[C@@H]1C[C@@H](O)CNC(=O)[C@@H]2[C@@H](O)CCN2C(=O)[C@H]([C@@H](O)CC(N)=O)NC(=O)[C@H]([C@@H](O)Cc2ccc3c(c2)CC(O)O3)NC(=O)[C@@H]2C[C@@H](O)CN2C(=O)[C@H]([C@@H](C)O)NC1=O (some centres undefined) | 1 µg/mL (≈ 0.93 µM) |
| CCC(C)CC(C)CCCCCCCCC(=O)N[C@@H]1C[C@@H](O)CNC(=O)[C@@H]2[C@@H](O)CCN2C(=O)[C@H]([C@@H](O)CC(N)=O)NC(=O)[C@H]([C@@H](O)Cc2ccc(O)c(N=[N+]=[N-])c2)NC(=O)[C@@H]2C[C@@H](O)CN2C(=O)[C@H]([C@@H](C)O)NC1=O (some centres undefined) | 4 µg/mL (≈ 3.72 µM) |
| CCC(C)CC(C)CCCCCCCCC(=O)N[C@@H]1C[C@@H](O)CNC(=O)[C@@H]2[C@@H](O)CCN2C(=O)[C@H]([C@@H](O)CC(N)=O)NC(=O)[C@H]([C@@H](O)Cc2ccc(O)c(CCO)c2)NC(=O)[C@@H]2C[C@@H](O)CN2C(=O)[C@H]([C@@H](C)O)NC1=O (some centres undefined) | 0.5 µg/mL (≈ 0.464 µM) |
| CCC(C)CC(C)CCCCCCCCC(=O)N[C@@H]1C[C@@H](O)CNC(=O)[C@@H]2[C@@H](O)CCN2C(=O)[C@H]([C@@H](O)CC(N)=O)NC(=O)[C@H]([C@@H](O)Cc2ccc(O)c([N+](=O)[O-])c2)NC(=O)[C@@H]2C[C@@H](O)CN2C(=O)[C@H]([C@@H](C)O)NC1=O (some centres undefined) | 2 µg/mL (≈ 1.85 µM) |
| CCc1cc(C[C@H](O)[C@@H]2NC(=O)[C@@H]3C[C@@H](O)CN3C(=O)[C@H]([C@@H](C)O)NC(=O)[C@H](NC(=O)CCCCCCCCC(C)CC(C)CC)C[C@@H](O)CNC(=O)[C@@H]3[C@@H](O)CCN3C(=O)[C@H]([C@@H](O)CC(N)=O)NC2=O)ccc1O (some centres undefined) | 1 µg/mL (≈ 0.942 µM) |
| CCC(C)CC(C)CCCCCCCCC(=O)N[C@@H]1C[C@@H](O)[C@@H](O)NC(=O)[C@@H]2[C@@H](O)CCN2C(=O)[C@H]([C@@H](O)CC(N)=O)NC(=O)[C@H]([C@@H](O)[C@H](O)c2ccc(O)c(N)c2)NC(=O)[C@@H]2C[C@@H](O)CN2C(=O)[C@H]([C@@H](C)O)NC1=O (some centres undefined) | 2 µg/mL (≈ 1.85 µM) |
| CCC(C)CC(C)CCCCCCCCC(=O)N[C@@H]1C[C@@H](O)[C@@H](O)NC(=O)[C@@H]2[C@@H](O)CCN2C(=O)[C@H]([C@@H](O)CC(N)=O)NC(=O)[C@H]([C@@H](O)[C@H](O)c2ccc(O)c(NC(=O)CCC(=O)O)c2)NC(=O)[C@@H]2C[C@@H](O)CN2C(=O)[C@H]([C@@H](C)O)NC1=O (some centres undefined) | 0.25 µg/mL (≈ 0.212 µM) |
| CCC(C)CC(C)CCCCCCCCC(=O)N[C@@H]1C[C@@H](O)[C@@H](O)NC(=O)[C@@H]2[C@@H](O)CCN2C(=O)[C@H]([C@@H](O)CC(N)=O)NC(=O)[C@H]([C@@H](O)[C@H](O)c2ccc(O)c(NC(=O)CN)c2)NC(=O)[C@@H]2C[C@@H](O)CN2C(=O)[C@H]([C@@H](C)O)NC1=O (some centres undefined) | 0.25 µg/mL (≈ 0.22 µM) |
| CCCc1cc(C[C@H](O)[C@@H]2NC(=O)[C@@H]3C[C@@H](O)CN3C(=O)[C@H]([C@@H](C)O)NC(=O)[C@H](NC(=O)CCCCCCCCC(C)CC(C)CC)C[C@@H](O)CNC(=O)[C@@H]3[C@@H](O)CCN3C(=O)[C@H]([C@@H](O)CC(N)=O)NC2=O)ccc1O (some centres undefined) | 0.5 µg/mL (≈ 0.465 µM) |
| CCC(C)CC(C)CCCCCCCCC(=O)N[C@@H]1C[C@@H](O)CNC(=O)[C@@H]2[C@@H](O)CCN2C(=O)[C@H]([C@@H](O)CC(N)=O)NC(=O)[C@H]([C@@H](O)Cc2ccc(O)c(O)c2)NC(=O)[C@@H]2C[C@@H](O)CN2C(=O)[C@H]([C@@H](C)O)NC1=O (some centres undefined) | 0.5 µg/mL (≈ 0.477 µM) |
| C=CCc1cc(C[C@H](O)[C@@H]2NC(=O)[C@@H]3C[C@@H](O)CN3C(=O)[C@H]([C@@H](C)O)NC(=O)[C@H](NC(=O)CCCCCCCCC(C)CC(C)CC)C[C@@H](O)CNC(=O)[C@@H]3[C@@H](O)CCN3C(=O)[C@H]([C@@H](O)CC(N)=O)NC2=O)ccc1O (some centres undefined) | 1 µg/mL (≈ 0.932 µM) |
| CCC(C)CC(C)CCCCCCCCC(=O)N[C@@H]1C[C@@H](O)[C@@H](O)NC(=O)[C@@H]2[C@@H](O)CCN2C(=O)[C@H]([C@@H](O)CC(N)=O)NC(=O)[C@H]([C@@H](O)[C@H](O)c2ccc(O)c(NC(C)=O)c2)NC(=O)[C@@H]2C[C@@H](O)CN2C(=O)[C@H]([C@@H](C)O)NC1=O (some centres undefined) | 1 µg/mL (≈ 0.891 µM) |
| CCC(C)CC(C)CCCCCCCCC(=O)N[C@@H]1C[C@@H](O)[C@@H](O)NC(=O)[C@@H]2[C@@H](O)CCN2C(=O)[C@H]([C@@H](O)CC(N)=O)NC(=O)[C@H]([C@@H](O)[C@H](O)c2ccc(O)c(N=[N+]=[N-])c2)NC(=O)[C@@H]2C[C@@H](O)CN2C(=O)[C@H]([C@@H](C)O)NC1=O (some centres undefined) | 0.5 µg/mL (≈ 0.452 µM) |
| CCC(C)CC(C)CCCCCCCCC(=O)N[C@@H]1C[C@@H](O)CNC(=O)[C@@H]2[C@@H](O)CCN2C(=O)[C@H]([C@@H](O)CC(N)=O)NC(=O)[C@H]([C@@H](O)Cc2ccc(O)c(C=O)c2)NC(=O)[C@@H]2C[C@@H](O)CN2C(=O)[C@H]([C@@H](C)O)NC1=O (some centres undefined) | 1 µg/mL (≈ 0.942 µM) |
| C=Cc1cc(C[C@H](O)[C@@H]2NC(=O)[C@@H]3C[C@@H](O)CN3C(=O)[C@H]([C@@H](C)O)NC(=O)[C@H](NC(=O)CCCCCCCCC(C)CC(C)CC)C[C@@H](O)CNC(=O)[C@@H]3[C@@H](O)CCN3C(=O)[C@H]([C@@H](O)CC(N)=O)NC2=O)ccc1O (some centres undefined) | 1 µg/mL (≈ 0.944 µM) |

tested on: Mus musculus; test: In vivo anti-Candida activity was obtained in the target organ kidney assay (TOKA), a mouse model of disseminated candidiasis; 0% of animals in test group with kidneys were completely sterilized of Candida albicans at the ED99.9 dose; format: functional

| Compound | ED99.9 |
| --- | --- |
| CCC(C)CC(C)CCCCCCCCC(=O)N[C@@H]1C[C@@H](O)[C@@H](O)NC(=O)[C@@H]2[C@@H](O)CCN2C(=O)[C@H]([C@@H](O)CC(N)=O)NC(=O)[C@H]([C@@H](O)[C@H](O)c2ccc(O)c(NC(=O)CCN)c2)NC(=O)[C@@H]2C[C@@H](O)CN2C(=O)[C@H]([C@@H](C)O)NC1=O (some centres undefined) | 0.78 mg/kg |
| CCC(C)CC(C)CCCCCCCCC(=O)N[C@@H]1C[C@@H](O)[C@@H](O)NC(=O)[C@@H]2[C@@H](O)CCN2C(=O)[C@H]([C@@H](O)CC(N)=O)NC(=O)[C@H]([C@@H](O)[C@H](O)c2ccc(O)c(NC(=O)CCC(=O)O)c2)NC(=O)[C@@H]2C[C@@H](O)CN2C(=O)[C@H]([C@@H](C)O)NC1=O (some centres undefined) | 6 mg/kg |

tested on: Mus musculus; test: In vivo anti-Candida activity was obtained in the target organ kidney assay (TOKA), a mouse model of disseminated candidiasis; 20% of animals in test group with kidneys were completely sterilized of Candida albicans at the ED99.9 dose; format: functional

| Compound | ED99.9 |
| --- | --- |
| CCC(C)CC(C)CCCCCCCCC(=O)N[C@@H]1C[C@@H](O)[C@@H](O)NC(=O)[C@@H]2[C@@H](O)CCN2C(=O)[C@H]([C@@H](O)CC(N)=O)NC(=O)[C@H]([C@@H](O)[C@H](O)c2ccc(O)cc2)NC(=O)[C@@H]2C[C@@H](O)CN2C(=O)[C@H]([C@@H](C)O)NC1=O (some centres undefined) | 6 mg/kg |

tested on: Mus musculus; test: In vivo anti-Candida activity was obtained in the target organ kidney assay (TOKA), a mouse model of disseminated candidiasis; 40% of animals in test group with kidneys were completely sterilized of Candida albicans at the ED99.9 dose; format: functional

| Compound | ED99.9 |
| --- | --- |
| CCC(C)CC(C)CCCCCCCCC(=O)N[C@@H]1C[C@@H](O)[C@@H](O)NC(=O)[C@@H]2[C@@H](O)CCN2C(=O)[C@H]([C@@H](O)CC(N)=O)NC(=O)[C@H]([C@@H](O)[C@H](O)c2ccc(O)c(NC(=O)CN)c2)NC(=O)[C@@H]2C[C@@H](O)CN2C(=O)[C@H]([C@@H](C)O)NC1=O (some centres undefined) | 0.75 mg/kg |
